# Test results reported in patent US10662214B2, “Compound of 4′-thionucleoside, as well as preparation method therefor, pharmaceutical composition thereof and application thereof” (Sichuan Kelun-Biotech Biopharmaceutical Co., Ltd., priority 2015, dated 2020).
# Legend:
# [1] = system: human pancreatic cancer cell BxPC-3; assay: Subcutaneous xenograft of human pancreatic cancer cell BxPC-3 in a nude mouse (Experimental example 4); assay type: in vivo
# Experimental: According to methods similar to those in sections 1 to 3 in Experimental example 2, pancreatic cancer cell BxPC-3 was cultured as a monolayer in vitro, and inoculated; the animals were randomized into groups; and samples were prepared.
# Mice bearing a tumor having a volume of 80-250 mm^3 were selected, and randomized into 6 groups (8 mice per group). The dosing volume was 10 mL/kg.
# For statistical calculations of the test indexes, please refer to Experimental example 2.
# The test results obtained by administrating (intravenous administration (i.v.) or oral administration (p.o.)) once a week for 3 weeks are shown in table 7-2.
# [2] = system: colorectal cancer cell HCT-116; assay: Subcutaneous xenograft of colorectal cancer cell HCT-116 in nude mice (Experimental example 2); conditions: for TGI (%): twice a week for 3 weeks; for Body weight change: 14 days after last administration vs beginning; for Tumor regression, CR (complete tumor regression) / Tumor regression, PR (partial tumor regression): animals out of 8
# Experimental: This experimental example was used for the evaluation of the effectiveness of the compounds of the present invention in inhibiting the proliferation of a subcutaneous xenograft of human tumor cells via various routes of administration.
# Gastric cancer cell NCI-N87 and colorectal cancer cell HCT-116 were cultured as a monolayer in vitro, and the culture conditions were RPMI-1640 culture medium supplemented with 10% heat inactivated Fetal Bovine Serum, and incubation in an incubator at 37° C. and 5% CO2. The cells were subcultured by treatment with trypsin-EDTA digestion.
# The tumor cells were respectively inoculated into BALB/c nude mice (SPF grade, female, 16-18 g per mouse, about 6 to 8 weeks old, Beijing Vital River Laboratory Animal Technology Co., Ltd.).
# Each nude mouse was inoculated with about 2.5×10^6 HCT-116 tumor cells or about 3×10^6 NCI-N87 tumor cells (suspended in 0.1 ml PBS) subcutaneously into the underarm of the right flank. After the inoculated tumor reached a size in the range of about 100-200 mm^3, nude mice bearing a tumor that is too small (smaller than 100 mm^3) or too big (bigger than 200 mm^3) were removed from the study, and the remaining ones were randomized into groups.
# Sulfobutyl ether-β-cyclodextrin (SE-β-CD) was formulated with physiological saline to form a 10% solution, which was then filtered through a 0.22 μm sterile filter for later use.
# An appropriate amount of the test compound was weighted, and added in DMSO. The resultant solution was vortexed to uniformity, and the 10% solution of SE-β-CD was added according to the desired concentration. The solution was vortexed to uniformity, and the final concentration of DMSO was adjusted to 5%. A gemcitabine injection (a positive control) was directly diluted to the desired concentration with physiological saline. A 10% solution of SE-β-CD containing 5% DMSO was prepared as a vehicle control.
# Mice bearing a tumor having a volume of about 100-200 mm^3 were selected, and randomized into 5 groups (8 mice per group). The dosing volume was 10 mL/kg, and the administration (intravenous administration (i.v.) or oral administration (p.o.)) was performed twice a week for 3 weeks. The tumor volume and body weight were measured twice a week after the administration, and the mortality of animals was observed every day.
# The diameter of a tumor was measured, and the tumor volume was calculated according to the following formula: V=0.5a×b^2, wherein a and b respectively represent the major and minor diameters of a tumor. The anti-tumor effect was evaluated by the tumor growth inhibition (TGI) (%). TGI (%)=[1−(VT-end−VT-start)/(VC-end−VC-start)]*100%
# The body weight of an animal was measured twice a week.
smiles,measurement,setting,value
"CC(C)OC(=O)[C@H](C)N[P@](=O)(OC[C@H]1S[C@@H](n2ccc(N)nc2=O)[C@@H](F)[C@@H]1O)Oc1ccccc1 [Compound C8, (S)-isopropyl 2-(((S)-(((2R,3S,4S,5R)-5-(4-amino-2-oxopyrimidin-1(2H)-yl)-4-fluoro-3-hydroxytetrahydrothiophen-2-yl)methoxy)(phenoxy)phosphoryl)amino)propanoate]",TGI (%),"[1]; 0.06 mmol/kg p.o., twice a week for 3 weeks",47.7%
same,TGI (%),"[1]; 0.12 mmol/kg p.o., twice a week for 3 weeks",53.2%
same,TGI (%),"[1]; 0.23 mmol/kg p.o., once a week for 3 weeks",51.0%
same,Mortality,[2]; 190 μmol/kg i.v.,0
same,TGI (%),[2]; 190 μmol/kg i.v.,111%
same,Body weight change,[2]; 190 μmol/kg i.v.,+7.4%
same,"Tumor regression, CR (complete tumor regression)",[2]; 190 μmol/kg i.v.,"1/8 CR,"
same,"Tumor regression, PR (partial tumor regression)",[2]; 190 μmol/kg i.v.,7/8 PR
same,Mortality,[2]; 190 μmol/kg p.o.,0
same,TGI (%),[2]; 190 μmol/kg p.o.,113%
same,Body weight change,[2]; 190 μmol/kg p.o.,+8.9%
same,"Tumor regression, CR (complete tumor regression)",[2]; 190 μmol/kg p.o.,"1/8 CR,"
same,"Tumor regression, PR (partial tumor regression)",[2]; 190 μmol/kg p.o.,7/8 PR
